The text below walks through data of US20080058709A1, “METHOD AND APPARATUS THAT ASSOCIATE THE PARENTERAL INJECTION OF MEDICAL GRADE CARBON DIOXIDE (CO2) CONCOMITANTLY WITH THE APPLICATION OF INFRARED RADIATION FROM THERMAL AND/OR LIGHT SOURCES USING CONTROL BY MEANS OF CUTANEOUS AND/OR BODY THERMOMETRY” (priority 2006, published 2008).

Each structure is given as a SMILES string. “Also recorded” adds a separate entry of the source.

Series [1] deals with patients with vascular and painful morbidities. The series can be described thus: subcutaneous and intradermal CO2 injections in patients with vascular and painful morbidities (clinical observation). The series is classed as in vivo, human. An excerpt: It was perceived that the beneficial therapeutic effects in the areas of diffusion of CO2 after its injection subcutaneously and intradermally explored the initial “aesthetic” objectives.

A further series has as its system patients. The series can be described thus: infrared radiation applied concomitantly with parenteral CO2 injection: pain during gas infusion. The series is classed as in vivo, human. The procedure: The intensity of radiation, however, could cause skin lesions; thus, during the infusions, he started to use as a safety parameter the assessment of skin temperature on the sites were irradiation was applied.
(§1) a.1) Following antisepsis and placement of limiting devices (G) (tourniquets), initiate the application of 02 to 03 minutes of infrared radiation in the area to be treated with thermal or light infrared radiation emitters (4), prior to initiating the injection of the CO2 gas (2);
c.1) Monitoring with the infrared emitting source (4) the treated areas (AT) that are receiving the injection of CO2 gas (2), throughout the procedure; in the areas with skin lesions of ischemic etiology, more caution should be exercised when using this radiation.

Series [2] relates to Vascular Disease—Miscellaneous. The series can be described thus: application of the invention in vascular disease, miscellaneous (healing, grafts, flaps). The following applies: CO2 infusion combined with infrared radiation controlled by thermometry. The series is classed as in vivo, human.
Description: The present developed method includes two main stages:
Stage I) Application of the medical grade carbon dioxide—CO2—in vascular diseases and painful syndromes consists of the following stages:
d) Injections of the gas (2) via the parenteral route (3), standardized by the type of vasculopathy, painful syndrome, or induction of focal reactive oxygen therapy, adjusted by the type of treatment, and automatically controlled by the interfaces of the apparatus (A2);
Stage II) Application of infrared radiation consists of the following stages:
as §1
(§2) Along these lines, the applicant has conjectured several clinical applications for using the method and controlled apparatuses of carbon dioxide infusion (A1) combined with the emission of infrared radiation (4) controlled by cutaneous/body thermometry (5) in an interface apparatus (A2) in vascular diseases, painful syndromes, lo treatment of osteoarticular tissues, and induction of focal reactive oxygen therapy. Following tests and observations, the applicant obtained the following results with the application of the present invention: […]

The next series relates to acupuncture points. As to the kind of experiment: application of the invention in acupuncture (carboxyacupuncture). It is filed as in vivo, human. The following applies: CO2 infusion combined with infrared radiation controlled by thermometry.
Description: Technical variants in the mode of application of the product have also been developed by the proponent, such as: the use of limiting devices or tourniquets (G) at several points of the lower limbs in order to limit the expansion of the gas; distribution and homogenization of the CO2 in areas of interest by means of manual massages with oils, creams, or ointments; as well as the development of specific injection techniques into alternative parenteral routes (intramuscular, subfascial, intrasynovial, and other), as well as new methodologies of injection of the gas (carboxyacupuncture, sclerocarboxytherapy, and carboembolotherapy), all representing methods to optimize the effects and the use of the proposed apparatus (1).
as §2

Series [3] has as its system bone tissues and related connective tissues. The series can be described thus: application of the invention in direct therapies on bone and related connective tissues. It is filed as in vivo, human. The following applies: CO2 infusion combined with infrared radiation controlled by thermometry.
Description: as §2

In series [4] the test system is patients that had arterial circulatory disease with intermittent claudication. The following applies: transcutaneous, bathing in waters rich in CO2; cited from earlier work.
Series [5] relates to patients allergic to iodine contrast media. The following applies: intra-arterial injections, even at large volumes; cited from earlier work.

Regarding `O=C=O` [CO2, carbon dioxide], the “vascular and painful symptoms following injections of the gas” value in series [1] (CO2 injected subcutaneously and intradermally, patients treated for aesthetics) is “showed improvement of vascular and painful symptoms”. In addition, the “therapeutic effects after moving injection sites closer to the painful morbidities and the circulatory system” value in series [1] (modified sites and forms of parenteral injection of CO2) was “clear intensification of the initially observed therapeutic effects”. In addition, the “analgesia during the infusion of the gas” value with patients is reported as “produced an important analgesia”. Also, in series [2], the “results in Vascular Disease—Miscellaneous” value is listed as “Accelerates the cicatricial process in lesions difficult to heal; also recorded: Accelerates the cicatricial process in areas of circulatory deficit; also recorded: Augments donor areas of free skin grafts; also recorded: Circulatory improvement in advancement or myocutaneous flaps”. For the same molecule, in the series with acupuncture points, the “results in Acupuncture (Carboxyacupuncture)” value is “Greater local effect at systemic and cranial acupuncture points; also recorded: Greater action spectrum on less sensitive meridians; also recorded: Greater longevity of treatment”. In series [3], the “results in direct therapies on bone tissues and related connective tissues” value is recorded as “Facilitates intraoperatory dissection of tendinous sheaths; also recorded: Minimizes post tenolysis adhesions”. In series [4], the walking distance entry is “improving the walking distance”. Moreover, the adverse reactions result in series [5] is recorded as “no significant adverse reactions even at large volumes”.
